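A five-concentration, 48-hour dose response in 96-well plates underlies each endpoint, interpolated linearly between surrounding concentrations. Definition used: TGI = concentration required for complete inhibition of growth.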
Legend:
Assay in all cases: NCI-60 cell line screen, 48 h
SR leukemia = system: SR leukemia
SNB-75 CNS = system: SNB-75 CNS
A498 renal = system: A498 renal
CAKI-1 renal = system: CAKI-1 renal
RXF 393 renal = system: RXF 393 renal
KM12 colon = system: KM12 colon
EKVX NSCLC = system: EKVX NSCLC
OVCAR-3 ovarian = system: OVCAR-3 ovarian
ACHN renal = system: ACHN renal
MDA-MB-435 = system: MDA-MB-435
OVCAR-8 ovarian = system: OVCAR-8 ovarian
OVCAR-4 ovarian = system: OVCAR-4 ovarian
786-0 renal = system: 786-0 renal
LOX IMVI melanoma = system: LOX IMVI melanoma
U251 CNS = system: U251 CNS
UACC-257 melanoma = system: UACC-257 melanoma
MCF7 breast = system: MCF7 breast
COLO 205 colon = system: COLO 205 colon
NCI-H23 lung = system: NCI-H23 lung
SF-295 CNS = system: SF-295 CNS
UACC-62 melanoma = system: UACC-62 melanoma
SK-MEL-2 melanoma = system: SK-MEL-2 melanoma
SK-MEL-5 melanoma = system: SK-MEL-5 melanoma
HCT-116 colon = system: HCT-116 colon
IGROV1 ovarian = system: IGROV1 ovarian
NCI-H522 lung = system: NCI-H522 lung
SW-620 colon = system: SW-620 colon
SF-539 CNS = system: SF-539 CNS
BT-549 breast = system: BT-549 breast
NCI-H460 lung = system: NCI-H460 lung
HL-60(TB) leukemia = system: HL-60(TB) leukemia
SN12C renal = system: SN12C renal
OVCAR-5 ovarian = system: OVCAR-5 ovarian
NCI/ADR-RES ovarian = system: NCI/ADR-RES ovarian
SK-OV-3 ovarian = system: SK-OV-3 ovarian
NCI-H226 lung = system: NCI-H226 lung
T-47D breast = system: T-47D breast
RPMI-8226 leukemia = system: RPMI-8226 leukemia
HS 578T breast = system: HS 578T breast
CCRF-CEM leukemia = system: CCRF-CEM leukemia
A549 NSCLC = system: A549 NSCLC
TK-10 renal = system: TK-10 renal
SF-268 CNS = system: SF-268 CNS
HOP-92 NSCLC = system: HOP-92 NSCLC
PC-3 prostate = system: PC-3 prostate
HT29 colon = system: HT29 colon
HCT-15 colon = system: HCT-15 colon
MOLT-4 leukemia = system: MOLT-4 leukemia
SNB-19 CNS = system: SNB-19 CNS
K-562 leukemia = system: K-562 leukemia
MDA-MB-231 breast = system: MDA-MB-231 breast
M14 melanoma = system: M14 melanoma
MDA-N = system: MDA-N
UO-31 renal = system: UO-31 renal
DU-145 prostate = system: DU-145 prostate
HCC-2998 colon = system: HCC-2998 colon
MALME-3M melanoma = system: MALME-3M melanoma
SK-MEL-28 melanoma = system: SK-MEL-28 melanoma
HOP-62 NSCLC = system: HOP-62 NSCLC

With Cn1c(-c2ccc(/C=N\N3CCN(/N=C/c4ccc(-c5c[n+]6ccsc6n5C)cc4)CC3)cc2)c[n+]2ccsc12 as the molecule, how does the TGI (SR leukemia) read?
The TGI was over 100 µM.

What about the TGI (SNB-75 CNS) of the same molecule?
Its TGI is 93.1 µM.

And the TGI (A498 renal)?
Its TGI is 82.3 µM.

What about the TGI (CAKI-1 renal) of the same molecule?
The TGI was over 100 µM.

And the TGI (RXF 393 renal)?
Its TGI is over 100 µM.

What about the TGI (KM12 colon) of the same molecule?
Its TGI is over 100 µM.

And the TGI (EKVX NSCLC)?
Its TGI is over 100 µM.

What about the TGI (OVCAR-3 ovarian) of the same molecule?
Its TGI is over 100 µM.

What about the TGI (ACHN renal) of the same molecule?
The TGI was over 100 µM.

And the TGI (MDA-MB-435)?
The TGI was over 100 µM.

What about the TGI (OVCAR-8 ovarian) of the same molecule?
The TGI was over 100 µM.

And the TGI (OVCAR-4 ovarian)?
Its TGI is over 100 µM.

What about the TGI (786-0 renal) of the same molecule?
Its TGI is over 100 µM.

And the TGI (LOX IMVI melanoma)?
Its TGI is over 100 µM.

And the TGI (U251 CNS)?
Its TGI is over 100 µM.

What about the TGI (UACC-257 melanoma) of the same molecule?
The TGI was 67.9 µM.

And the TGI (MCF7 breast)?
The TGI was over 100 µM.

What about the TGI (COLO 205 colon) of the same molecule?
The TGI was 36.3 µM.

What about the TGI (NCI-H23 lung) of the same molecule?
The TGI was over 100 µM.

And the TGI (SF-295 CNS)?
The TGI was over 100 µM.

What about the TGI (UACC-62 melanoma) of the same molecule?
The TGI was 95.7 µM.

And the TGI (SK-MEL-2 melanoma)?
Its TGI is over 100 µM.

What about the TGI (SK-MEL-5 melanoma) of the same molecule?
Its TGI is 84.6 µM.

And the TGI (HCT-116 colon)?
Its TGI is over 100 µM.

And the TGI (IGROV1 ovarian)?
The TGI was over 100 µM.

And the TGI (NCI-H522 lung)?
The TGI was over 100 µM.

What about the TGI (SW-620 colon) of the same molecule?
Its TGI is over 100 µM.

And the TGI (SF-539 CNS)?
The TGI was over 100 µM.

And the TGI (BT-549 breast)?
The TGI was 90.3 µM.

What about the TGI (NCI-H460 lung) of the same molecule?
Its TGI is over 100 µM.

What about the TGI (HL-60(TB) leukemia) of the same molecule?
The TGI was 48.3 µM.

What about the TGI (SN12C renal) of the same molecule?
Its TGI is over 100 µM.

What about the TGI (OVCAR-5 ovarian) of the same molecule?
The TGI was over 100 µM.

And the TGI (NCI/ADR-RES ovarian)?
Its TGI is over 100 µM.

What about the TGI (SK-OV-3 ovarian) of the same molecule?
Its TGI is over 100 µM.

What about the TGI (NCI-H226 lung) of the same molecule?
The TGI was over 100 µM.

And the TGI (T-47D breast)?
The TGI was 53.8 µM.

What about the TGI (RPMI-8226 leukemia) of the same molecule?
The TGI was 89.4 µM.

And the TGI (HS 578T breast)?
The TGI was 80.8 µM.

And the TGI (CCRF-CEM leukemia)?
Its TGI is over 100 µM.

What about the TGI (A549 NSCLC) of the same molecule?
The TGI was over 100 µM.

What about the TGI (TK-10 renal) of the same molecule?
Its TGI is over 100 µM.

And the TGI (SF-268 CNS)?
Its TGI is over 100 µM.

And the TGI (HOP-92 NSCLC)?
The TGI was over 100 µM.

And the TGI (PC-3 prostate)?
The TGI was over 100 µM.

What about the TGI (HT29 colon) of the same molecule?
Its TGI is over 100 µM.

And the TGI (HCT-15 colon)?
Its TGI is over 100 µM.

And the TGI (MOLT-4 leukemia)?
The TGI was over 100 µM.

And the TGI (SNB-19 CNS)?
Its TGI is over 100 µM.

And the TGI (K-562 leukemia)?
Its TGI is 34.7 µM.

And the TGI (MDA-MB-231 breast)?
Its TGI is 78.5 µM.

And the TGI (M14 melanoma)?
Its TGI is over 100 µM.

What about the TGI (MDA-N) of the same molecule?
Its TGI is over 100 µM.

And the TGI (UO-31 renal)?
The TGI was over 100 µM.

What about the TGI (DU-145 prostate) of the same molecule?
The TGI was over 100 µM.

Which results are given for Oc1c(C2=N[C@H]3CCCC[C@@H]3N2)ccc2ccccc12?
TGI (SR leukemia): > 100 µM; TGI (SNB-75 CNS): > 100 µM; TGI (A498 renal): > 100 µM; TGI (CAKI-1 renal): > 100 µM; TGI (KM12 colon): > 100 µM; TGI (EKVX NSCLC): > 100 µM; TGI (OVCAR-3 ovarian): > 100 µM; TGI (ACHN renal): > 100 µM; TGI (MDA-MB-435): > 100 µM; TGI (HCC-2998 colon): > 100 µM; TGI (OVCAR-8 ovarian): > 100 µM; TGI (OVCAR-4 ovarian): > 100 µM; TGI (MALME-3M melanoma): > 100 µM; TGI (786-0 renal): > 100 µM; TGI (LOX IMVI melanoma): > 100 µM; TGI (SK-MEL-28 melanoma): > 100 µM; TGI (U251 CNS): > 100 µM; TGI (UACC-257 melanoma): > 100 µM; TGI (MCF7 breast): > 100 µM; TGI (COLO 205 colon): > 100 µM; TGI (NCI-H23 lung): > 100 µM; TGI (UACC-62 melanoma): > 100 µM; TGI (SK-MEL-2 melanoma): > 100 µM; TGI (HOP-62 NSCLC): > 80.6 µM; TGI (SK-MEL-5 melanoma): > 100 µM; TGI (HCT-116 colon): > 100 µM; TGI (IGROV1 ovarian): > 100 µM; TGI (NCI-H522 lung): > 100 µM; TGI (SW-620 colon): > 100 µM; TGI (SF-539 CNS): > 100 µM; TGI (BT-549 breast): > 100 µM; TGI (NCI-H460 lung): > 100 µM; TGI (HL-60(TB) leukemia): > 100 µM; TGI (SN12C renal): > 100 µM; TGI (OVCAR-5 ovarian): > 100 µM; TGI (NCI/ADR-RES ovarian): > 93.9 µM; TGI (SK-OV-3 ovarian): > 100 µM; TGI (NCI-H226 lung): > 100 µM; TGI (T-47D breast): > 100 µM; TGI (RPMI-8226 leukemia): > 100 µM; TGI (HS 578T breast): > 100 µM; TGI (CCRF-CEM leukemia): > 100 µM; TGI (A549 NSCLC): > 21.8 µM; TGI (TK-10 renal): > 100 µM; TGI (SF-268 CNS): > 100 µM; TGI (HOP-92 NSCLC): > 100 µM; TGI (PC-3 prostate): > 100 µM; TGI (HT29 colon): > 100 µM; TGI (HCT-15 colon): > 100 µM; TGI (MOLT-4 leukemia): > 100 µM; TGI (SNB-19 CNS): > 96.4 µM; TGI (K-562 leukemia): > 100 µM; TGI (MDA-MB-231 breast): > 100 µM; TGI (M14 melanoma): > 100 µM; TGI (MDA-N): > 100 µM; TGI (UO-31 renal): > 100 µM; TGI (DU-145 prostate): > 100 µM

— PubChem BioAssay (NCI)
